Data on 15 compounds can be found in US12202844B2, “MAP4K1 inhibitors” (Blueprint Medicines Corporation, priority 2021, dated 2025).

The test system of experiment [1] is Primary T Cell (expanded CD3+ T cells). Put plainly: T cell enhancement of cytokines: IL2 measurement (HTRF) in stimulated expanded CD3+ T cells. The class given is cell-based, human. The following applies: Homo sapiens, T-cell, 24 h, plate-bound anti-CD3 and soluble anti-CD28, 24 h, IL2 by HTRF; read-out: IL-2 Primary T Cell EC50. In short, it runs like this:
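Healthy-donor T cells (95-98% CD3+) expanded 10-14 days with IL2 and CD3/CD28 beads, then cryopreserved. 100K cells/well in X-VIVO 10 serum-free medium were stimulated with plate-bound anti-CD3 plus soluble anti-CD28 with compound at various concentrations for 24 h. Secreted IL2 measured by HTRF after 24 h antibody incubation.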

Another experiment deals with T1, MAP4K1 (HPK1) (Homo sapiens, UniProt Q92918).
T1 construct: purchased Invitrogen
T1 sequence (Q92918 whole entry): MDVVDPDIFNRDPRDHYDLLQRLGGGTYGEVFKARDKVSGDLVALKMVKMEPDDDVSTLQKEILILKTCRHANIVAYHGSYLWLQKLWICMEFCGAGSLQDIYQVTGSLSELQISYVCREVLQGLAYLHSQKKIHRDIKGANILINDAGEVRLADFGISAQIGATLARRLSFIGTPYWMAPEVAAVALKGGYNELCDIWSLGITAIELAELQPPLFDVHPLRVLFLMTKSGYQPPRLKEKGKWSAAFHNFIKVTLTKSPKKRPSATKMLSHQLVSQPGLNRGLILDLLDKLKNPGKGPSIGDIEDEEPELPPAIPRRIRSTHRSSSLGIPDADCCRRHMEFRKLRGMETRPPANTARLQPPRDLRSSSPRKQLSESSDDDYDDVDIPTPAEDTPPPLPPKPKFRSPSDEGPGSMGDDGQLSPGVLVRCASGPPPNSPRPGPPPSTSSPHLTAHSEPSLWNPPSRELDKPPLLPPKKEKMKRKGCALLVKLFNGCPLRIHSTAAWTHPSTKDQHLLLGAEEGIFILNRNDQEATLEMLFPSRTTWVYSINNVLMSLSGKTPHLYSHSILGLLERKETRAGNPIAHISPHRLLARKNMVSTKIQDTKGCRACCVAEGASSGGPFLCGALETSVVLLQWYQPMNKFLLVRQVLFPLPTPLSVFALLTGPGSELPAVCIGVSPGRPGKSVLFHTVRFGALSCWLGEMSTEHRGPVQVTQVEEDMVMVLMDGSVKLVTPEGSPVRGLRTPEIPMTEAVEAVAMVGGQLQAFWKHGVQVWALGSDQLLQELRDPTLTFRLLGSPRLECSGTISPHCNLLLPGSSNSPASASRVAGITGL
Put plainly: Inhibition of MAP4K1 biochemical enzymatic activity (EZReader 2 electrophoretic mobility shift). To be noted: HPK1 (Invitrogen), S6K2tide 1.5 μM, 120 min; ATP 26 μM or 1000 μM (not given). In short, it runs like this:
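Untreated enzyme (0.1-15 nM) was incubated with 1.5 μM fluorescent peptide and 20-1000 μM ATP (apparent Km or 1 mM) in HEPES pH 7.5, MgCl2, DTT, Brij 35 at 25° C. for 60-180 min, with 1% DMSO and a 10-point 4-fold compound series. After an EDTA stop, product/substrate peptide peak ratio was read by mobility shift.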

For the compound `C[C@@H]1c2nc(Nc3cc4c(C(C)(C)N)cnc(O[C@H]5C[C@@H](S(C)(=O)=O)C5)c4cn3)ccc2C(=O)OC1(C)C` [Compound 42, (R)-2-((5-(2-Aminopropan-2-yl)-8-(cis-3-(methylsulfonyl)cyclobutoxy)-2,7-naphthyridin-3-yl)amino)-7,7,8-trimethyl-7,8-dihydro-5H-pyrano[4,3-b]pyridin-5-one], the half-maximal effective concentration (EC50) in experiment [1] worked out at 9 nM. Also, on MAP4K1 (HPK1), the IC50 worked out at 0.09 nM.

With `C[C@H](C[C@@H](C)S(C)(=O)=O)Oc1ncc(C(C)(C)N)c2cc(Nc3ccc4c(n3)[C@@H](C)[C@H](C)OC4=O)ncc12` [Compound 51], in experiment [1], the EC50 came out at 25 nM. Also, the IC50 at MAP4K1 (HPK1) stood at 0.15 nM.

In the case of `CC[C@@](C)(N)c1cnc(O[C@H](C)CCS(C)(=O)=O)c2cnc(Nc3ccc4c(n3)[C@@H](C)[C@H](C)OC4=O)cc12` [Compound 52, (7S,8R)-2-((5-((R)-2-Aminobutan-2-yl)-8-(((R)-4-(methylsulfonyl)butan-2-yl)oxy)-2,7-naphthyridin-3-yl)amino)-7,8-dimethyl-7,8-dihydro-5H-pyrano[4,3-b]pyridin-5-one], in experiment [1], the EC50 is 9 nM. Also, at MAP4K1 (HPK1), the IC50 is 0.13 nM.

With `CC[C@@](C)(N)c1cnc(O[C@@H](C)CCS(C)(=O)=O)c2cnc(Nc3ccc4c(n3)[C@@H](C)[C@H](C)OC4=O)cc12` [Compound 53], the EC50 in experiment [1] came to 21 nM. Besides, on MAP4K1 (HPK1), the IC50 is 0.11 nM.

As for `C[C@@H]1OC(=O)c2ccc(Nc3cc4c([C@](C)(N)C5CC5)cnc(O[C@H]5C[C@@H](S(C)(=O)=O)C5)c4cn3)nc2[C@H]1C` [Compound 60], the EC50 in experiment [1] turned out to be 10 nM. The IC50 at MAP4K1 (HPK1) came out at 0.19 nM.

On to `CCS(=O)(=O)[C@H]1C[C@@H](Oc2ccc(C(C)(C)N)c3cc(Nc4ccc5c(n4)[C@@H](C)C(C)(C)OC5=O)ncc23)C1` [Compound 63], for which the EC50 in experiment [1] is 14 nM. On MAP4K1 (HPK1), the IC50 came out at 0.09 nM.

As for `CCS(=O)(=O)[C@H]1C[C@@H](Nc2ncc(C(C)(C)N)c3cc(Nc4ccc5c(n4)[C@@H](C)C(C)(C)OC5=O)ncc23)C1` [Compound 64], the EC50 in experiment [1] was 105 nM. Further, at MAP4K1 (HPK1), the IC50 came out at 0.21 nM.

For `C[C@H](CCS(C)(=O)=O)Oc1ncc(C(C)(C)N)c2cc(Nc3ccc4c(n3)C3(CC3)C(C)(C)OC4=O)ncc12` [Compound 67], the EC50 in experiment [1] was 40 nM. Moreover, the IC50 on MAP4K1 (HPK1) is 0.77 nM.

As for `CC[C@@](C)(N)c1cnc(O[C@H]2C[C@@H](S(=O)(=O)CC)C2)c2cnc(Nc3ccc4c(n3)[C@@H](C)[C@H](C)OC4=O)cc12` [Compound 77], the EC50 in experiment [1] was 3 nM. Moreover, the IC50 on MAP4K1 (HPK1) is 0.06 nM.

With `CC[C@@](C)(N)c1cnc(O[C@H]2C[C@@H](S(C)(=O)=O)C2)c2cnc(Nc3ccc4c(n3)[C@@H](C)C(C)(C)OC4=O)cc12` [Compound 78], the concentration giving a half-maximal response (EC50) in experiment [1] worked out at 7 nM. In addition, the IC50 at MAP4K1 (HPK1) came to 0.14 nM.

With `CCS(=O)(=O)[C@H]1C[C@@H](Oc2ncc(C(C)(C)N)c3cc(Nc4ccc5c(n4)[C@@H](C)C(C)(C)OC5=O)ncc23)C1` [Compound 80], the EC50 in experiment [1] came to 9 nM. Moreover, the IC50 on MAP4K1 (HPK1) is 0.08 nM.

Take `C[C@@H]1OC(=O)c2ccc(Nc3cc4c(C(C)(C)N)cnc(O[C@H]5C[C@@H](S(=O)(=O)N(C)C)C5)c4cn3)nc2[C@H]1C` [Compound 81]: in experiment [1], the EC50 came to 18 nM. The IC50 at MAP4K1 (HPK1) is 0.1 nM.

With `CC[C@@](C)(N)c1cnc(O[C@H](C)C[C@@H](C)S(C)(=O)=O)c2cnc(Nc3ccc4c(n3)CC(C)(C)OC4=O)cc12` [Compound 87], the EC50 in experiment [1] came out at 29 nM. Also, on MAP4K1 (HPK1), the IC50 stood at 0.13 nM.

With `CC[C@@](C)(N)c1cnc(O[C@H](C)C[C@@H](C)S(C)(=O)=O)c2cnc(Nc3ccc4c(n3)C(C)(C)COC4=O)cc12` [Compound 88], the EC50 in experiment [1] came out at 23 nM. Besides, the IC50 at MAP4K1 (HPK1) is 0.21 nM.

Regarding `CC[C@@](C)(N)c1cnc(O[C@H](C)C[C@@H](C)S(C)(=O)=O)c2cnc(Nc3ccc4c(n3)[C@@H](C)[C@H](C)OC4=O)cc12` [Compound 90], the EC50 in experiment [1] was determined as 3 nM. The IC50 at MAP4K1 (HPK1) came to 0.11 nM.
